Laboratory results: patent publication US10865216B2, “Tricyclic Gyrase inhibitors” (MERCK SHARP & DOHME CORP., priority 2012, dated 2020)
pIC50: −log10 of the molar value. Converted amounts (≈) assume the structure as drawn. Read-outs that look alike come from different tables or passages of the source.

Legend:
E. coli ATCC 25922 = assay: MIC, E. coli ATCC 25922; type: cell-based; settings: for MIC: Escherichia coli; for EC8 MIC: Table 14, R2 is a 5 membered heterocycle, EC8 not defined
S. aureus ATCC 13709 = assay: MIC, S. aureus ATCC 13709; type: cell-based; settings: for MIC: Staphylococcus aureus; for SA MIC: Table 14, R2 is a 5 membered heterocycle
hERG = target: T1, hERG (Homo sapiens, UniProt Q12809); assay: Cerep automated patch-clamp hERG assay, Chinese Hamster Ovary K1 cells; type: cell-based; settings: for pIC50: Table 19, automated patch-clamp, CHO K1 cells, tail current
T1 construct: host or cells: Chinese Hamster Ovary K1 cells
Method: A Cerep automated patch-clamp assay using Chinese Hamster Ovary K1 cells was used to measure hERG IC50 values. The degree of inhibition (%) was obtained by measuring the tail current amplitude, which is induced by a one second test pulse to −40 mV after a two second pulse to +20 mV, before and after drug incubation (the difference in current was normalized to control and multiplied by 100 to obtain the percent inhibition).
Concentration (log) response curves were fitted to a logistic equation (three parameters assuming complete block of the current at very high test compound concentrations) to generate estimates of the 50% inhibitory concentration (IC50). The concentration-response relationship of each compound was constructed from the percentage reductions of current amplitude by sequential concentrations. The hERG IC50 values are provided in Table 19 below for the compounds tested.

[1] = tested on: S. aureus ATCC 13709 + mouse serum; assay: MIC, SA + serum (S. aureus ATCC 13709, MHCA + mouse serum); type: cell-based; settings: Table 14; R2 is a 5 membered heterocycle
[2] = amide bond, BOP, 40.0 °C
[3] = tested on: B. thailandensis ATCC E264; assay: microbe, parasite or virus in culture; type: cell-based
[4] = tested on: F. tularensis holarctica LVS; assay: microbe, parasite or virus in culture; type: cell-based
P. aeruginosa ATCC 15692 = assay: MIC, P. aeruginosa ATCC 15692; type: cell-based; settings: for MIC: Pseudomonas aeruginosa, ATCC15692
[5] = tested on: K. pneumoniae ATCC 700603; assay: MIC, K. pneumoniae ATCC 700603; type: cell-based; settings: for MIC: Klebsiella pneumoniae, ATCC700603
A. baumannii ATCC 19606 = assay: MIC, A. baumannii ATCC 19606; type: cell-based; settings: for MIC: Acinetobacter baumannii, ATCC19606
Bp = assay: organism not typed; type: cell-based; settings: read-out: Bp MIC
S. pneumoniae ATCC 51916 = assay: MIC, S. pneumoniae ATCC 51916; type: cell-based; settings: for MIC: Streptococcus pneumoniae, ATCC51916
[6] = amide bond, BOP/Et3N then EDC, DCM/NMP 1:1, 40.0 °C
Y. pestis CO92 pgm- = type: cell-based; settings: Table 10
[7] = ATCC25922, E. coli, Alamar Blue read after overnight incubation at 35° C., read-out: MIC Ec
[8] = ATCC13709, S. aureus, Alamar Blue read after overnight incubation at 35° C., read-out: MIC Sa
[9] = Table 10, Ab = A. baumannii, strain not stated

T1 sequence (Q12809 whole entry): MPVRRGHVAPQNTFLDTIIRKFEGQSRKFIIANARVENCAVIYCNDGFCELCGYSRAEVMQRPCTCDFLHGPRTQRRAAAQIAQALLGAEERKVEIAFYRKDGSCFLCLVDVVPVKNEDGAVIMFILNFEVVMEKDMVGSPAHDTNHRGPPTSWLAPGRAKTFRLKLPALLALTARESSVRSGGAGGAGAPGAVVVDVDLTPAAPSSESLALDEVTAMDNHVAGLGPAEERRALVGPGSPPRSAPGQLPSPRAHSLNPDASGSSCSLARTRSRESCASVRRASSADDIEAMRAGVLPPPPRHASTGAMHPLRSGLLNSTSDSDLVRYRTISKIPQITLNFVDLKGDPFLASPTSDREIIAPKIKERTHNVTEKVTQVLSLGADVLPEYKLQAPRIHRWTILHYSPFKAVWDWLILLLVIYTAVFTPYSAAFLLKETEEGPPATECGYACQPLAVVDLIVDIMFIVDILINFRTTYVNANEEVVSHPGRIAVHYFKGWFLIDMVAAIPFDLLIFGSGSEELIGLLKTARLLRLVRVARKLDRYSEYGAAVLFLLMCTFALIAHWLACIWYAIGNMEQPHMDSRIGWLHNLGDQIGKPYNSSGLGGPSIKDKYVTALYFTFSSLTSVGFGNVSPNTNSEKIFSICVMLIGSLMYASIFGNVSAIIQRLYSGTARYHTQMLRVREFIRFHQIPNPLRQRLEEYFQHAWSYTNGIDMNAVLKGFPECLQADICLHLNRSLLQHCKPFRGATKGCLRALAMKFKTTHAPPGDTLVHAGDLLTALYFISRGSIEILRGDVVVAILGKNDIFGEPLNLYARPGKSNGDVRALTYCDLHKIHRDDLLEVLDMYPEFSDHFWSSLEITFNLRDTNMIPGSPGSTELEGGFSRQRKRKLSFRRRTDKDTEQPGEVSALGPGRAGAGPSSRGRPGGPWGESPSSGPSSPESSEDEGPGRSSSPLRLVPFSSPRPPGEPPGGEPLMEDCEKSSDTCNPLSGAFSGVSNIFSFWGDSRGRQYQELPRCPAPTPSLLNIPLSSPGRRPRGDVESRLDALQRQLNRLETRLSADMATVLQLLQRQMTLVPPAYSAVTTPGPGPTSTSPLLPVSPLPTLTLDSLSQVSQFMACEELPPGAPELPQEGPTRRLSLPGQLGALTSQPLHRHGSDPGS

Work on CNc1cc(F)cc2c1[nH]c1nc(Oc3cnc([C@@H](C)O)nc3)nc(N3C[C@H]4C[C@@H]3C[C@H]4N)c12 [Compound 4.408] yielded an MIC (E. coli ATCC 25922; [7]) of no more than 0.5 µg/mL, an MIC (S. aureus ATCC 13709; [8]) of no more than 0.5 µg/mL and a pIC50 (hERG) of 5.19.
CNc1cc(F)cc2c1[nH]c1nc(Sc3nc(Br)cs3)nc(N3CC4CC(N)C4C3)c12 (stereo not drawn) showed an EC8 MIC (E. coli ATCC 25922) of no more than 0.5 µg/mL, an SA MIC (S. aureus ATCC 13709) of no more than 0.5 µg/mL and an SA+ serum MIC [1] of no more than 0.5 µg/mL.
For CN(C(=O)OC(C)(C)C)c1cc(F)cc2c1[nH]c1nc3nc(c12)NCCCCCCNC(=O)c1cncc(c1)O3, the ring closure, yield of all isomers ([2]; from CN(C(=O)OC(C)(C)C)c1cc(F)cc2c1[nH]c1nc(Oc3cncc(C(=O)O)c3)nc(NCCCCCCN)c12, then EDC (Et3N), DCM/NMP, 18.5 mM, 3.0 h) was 74%.
CNc1cc(F)c(F)c2c1[nH]c1nc(Oc3cnc([C@@H](C)O)nc3)nc(N3C[C@H]4C[C@@H]3C[C@H]4N)c12 [Compound 9.1] showed an MIC ([3]; Burkholderia thailandensis, ATCCE264, read-out: Bt MIC) of 0.5 µg/mL (≈ 1.04 µM), an MIC (E. coli ATCC 25922; ATCC25922, Table 20, read-out: Ec MIC) of no more than 0.5 µg/mL and an MIC (S. aureus ATCC 13709; ATCC13709, Table 20, read-out: Sa MIC) of no more than 0.5 µg/mL. The MIC ([4]; Francisella tularensis, read-out: Ft MIC) was 0.5 µg/mL (≈ 1.04 µM), the MIC (P. aeruginosa ATCC 15692; Table 20, read-out: Pa MIC) was 2 µg/mL (≈ 4.15 µM) and the pIC50 (hERG) was 4.00 to 4.10. The “selectivity in the hERG assay” value (hERG; compared with previous compounds in the series) was “significantly more selective”, the MIC ([5]; Table 20, read-out: Kpn MIC) was 4 µg/mL (≈ 8.29 µM) and the MIC (A. baumannii ATCC 19606; Table 20, read-out: Ab MIC) was 1 µg/mL (≈ 2.07 µM). For the same compound, the MIC (Bp) was 0.5 µg/mL (≈ 1.04 µM) and the MIC (S. pneumoniae ATCC 51916; Table 20, read-out: Spn MIC) was no more than 0.5 µg/mL.
For CN(C(=O)OC(C)(C)C)c1cc(F)cc2c1[nH]c1nc3nc(c12)NCCCCNC(=O)CSc1ncc(cn1)O3, the ring closure, yield after HPLC ([6]; from CN(C(=O)OC(C)(C)C)c1cc(F)cc2c1[nH]c1nc(Oc3cnc(SCC(=O)O)nc3)nc(NCCCCN)c12, 17-membered ring, 36.5 mM) was 34%.
Work on “2-((5-((4-(6-aminohexyl)amino)-8-((tert-butoxycarbonyl)(methyl)amino)-6-fluoro-9H-pyrimido[4,5-b]indol-2-yl)oxy)pyrimidin-2-yl)thio)acetic acid” yielded a ring closure, yield after HPLC ([6]; the molecule shown is the open-chain precursor, 19-membered ring, 30.0 mM) of 72%.
With CNc1cc(F)cc2c1[nH]c1nc(Sc3nc4ccccc4s3)nc(N3C[C@H]4C[C@@H]3C[C@H]4N)c12 the EC8 MIC (E. coli ATCC 25922) was 16 µg/mL, the SA MIC (S. aureus ATCC 13709) was 1 µg/mL and the SA+ serum MIC [1] was 4 µg/mL.
For “5-((4-(6-aminohexyl)amino)-8-((tert-butoxycarbonyl)(methyl)amino)-6-fluoro-9H-pyrimido[4,5-b]indol-2-yl)oxy)nicotinic acid”, the ring closure, yield after HPLC ([6]; the molecule shown is the open-chain precursor, 16-membered ring, 18.5 mM) was 74%.
CNc1cc(F)cc2c1[nH]c1nc(Oc3cnc(C(C)O)nc3)nc(N3CC4C[C@@H](N)C4C3)c12 (stereo partly drawn) [Compound 4.409] showed an MIC (E. coli ATCC 25922; [7]) of no more than 0.5 µg/mL, an MIC (E. coli ATCC 25922; ATCC25922, Table 10, Ec = E. coli, strain not stated, read-out: Ec MIC) of no more than 0.5 µg/mL and an MIC (S. aureus ATCC 13709; [8]) of no more than 0.5 µg/mL. It also gave an MIC (S. aureus ATCC 13709; ATCC13709, Table 10, Sa = S. aureus, read-out: Sa MIC) of no more than 0.5 µg/mL, an MIC (P. aeruginosa ATCC 15692; Table 10, Pa = P. aeruginosa) of 1 µg/mL (≈ 2.15 µM) and a pIC50 (hERG) of 5.12. For the same compound, the MIC ([5]; Table 10, Kpn = K. pneumoniae) was 4 µg/mL (≈ 8.61 µM), the MIC (A. baumannii ATCC 19606; [9]) was 1 µg/mL (≈ 2.15 µM) and the MIC (S. pneumoniae ATCC 51916; Table 10, Spn = S. pneumoniae) was no more than 0.5 µg/mL.
With CNc1cc(F)cc2c1[nH]c1nc3nc(c12)N1CC(CNC(=O)COc2cc(C#N)cc(c2)O3)C1 the ring closure, yield of all isomers ([2]; from CNc1cc(F)cc2c1[nH]c1nc(Oc3cc(C#N)cc(OCC(=O)O)c3)nc(N3CC(CN)C3)c12, EDC (Et3N), DCM/NMP (1:1), 40.0 mM, 2.0 h) was 17%.
Compound CNc1cc(F)cc2c1[nH]c1nc(Sc3nc(C(=O)O)cs3)nc(N3CC4CC(N)C4C3)c12 (stereo not drawn) has an EC8 MIC (E. coli ATCC 25922) greater than 16 µg/mL, an SA MIC (S. aureus ATCC 13709) of no more than 0.5 µg/mL and an SA+ serum MIC [1] of 2 µg/mL.
With CNc1cc(F)cc2c1[nH]c1nc3nc(c12)N([C@H](CN)COCCCN)C(=O)CSc1ncc(cn1)O3 the ring closure, yield after HPLC ([6]; from CNc1cc(F)cc2c1[nH]c1nc(Oc3cnc(SCC(=O)O)nc3)nc(N[C@H](CN)COCCCN)c12, 38.5 mM) was 57%.
CCOC(=O)c1csc(Nc2nc(N3C[C@H]4C[C@@H]3C[C@H]4N)c3c(n2)[nH]c2c(NC)cc(F)cc23)n1 [drawing 1760] gave an EC8 MIC (E. coli ATCC 25922) of 1 µg/mL, an SA MIC (S. aureus ATCC 13709) of no more than 0.5 µg/mL and an SA+ serum MIC [1] greater than 16 µg/mL.
In the case of CNc1cc(F)cc2c1[nH]c1nc3nc(c12)N[C@H](CN)COCCCNC(=O)CSc1ncc(cn1)O3, the ring closure, yield of all isomers ([2]; from CNc1cc(F)cc2c1[nH]c1nc(Oc3cnc(SCC(=O)O)nc3)nc(N[C@H](CN)COCCCN)c12, then EDC (Et3N), DCM/NMP (1:1), 38.5 mM, 3.0 h) was 57%.
For CNc1cc(F)cc2c1[nH]c1nc(Sc3nc(C(=O)OC)cs3)nc(N3CC4CC(N)C4C3)c12 (stereo not drawn), the EC8 MIC (E. coli ATCC 25922) was no more than 0.5 µg/mL, the SA MIC (S. aureus ATCC 13709) was no more than 0.5 µg/mL and the SA+ serum MIC [1] was 2 µg/mL.
With CNc1cc(F)cc2c1[nH]c1nc(Oc3cnc(C)nc3)nc(N3CC4(CC[C@H]4N)C3)c12 [Compound 4.105] the “Bt MIC” value [3] was no more than 0.5 µg/mL, the “MIC Ec” value (E. coli ATCC 25922; E. coli, Alamar Blue read after overnight incubation at 35° C.) was no more than 0.5 µg/mL and the “Ec MIC” value (E. coli ATCC 25922; Table 10, Ec = E. coli, strain not stated) was no more than 0.5 µg/mL. The “MIC Sa” value (S. aureus ATCC 13709; S. aureus, Alamar Blue read after overnight incubation at 35° C.) was no more than 0.5 µg/mL, the “Sa MIC” value (S. aureus ATCC 13709; Table 10, Sa = S. aureus) was no more than 0.5 µg/mL and the “Ft MIC” value ([4]; Table 10, Ft = F. tularensis, strain not stated) was 1 µg/mL. For the same compound, the “Pa MIC” value (P. aeruginosa ATCC 15692; Table 10, Pa = P. aeruginosa) was 1 µg/mL, the “Kpn MIC” value ([5]; Table 10, Kpn = K. pneumoniae) was 2 µg/mL and the “Yp MIC” value (Y. pestis CO92 pgm-) was no more than 0.5 µg/mL. The “Ab MIC” value (A. baumannii ATCC 19606; [9]) was no more than 0.5 µg/mL and the “Spn MIC” value (S. pneumoniae ATCC 51916; Table 10, Spn = S. pneumoniae) was no more than 0.5 µg/mL.
With CNc1cc(F)cc2c1[nH]c1nc(Sc3nncs3)nc(N3C[C@H]4C[C@@H]3C[C@H]4N)c12 [drawing 1754] the EC8 MIC (E. coli ATCC 25922) was no more than 0.5 µg/mL, the “SA MIC” value (S. aureus ATCC 13709) was <≤ 0.5 and the SA+ serum MIC [1] was no more than 0.5 µg/mL.
With CN(C(=O)OC(C)(C)C)c1cc(F)cc2c1[nH]c1nc3nc(c12)NCCCCCCNC(=O)CSc1ncc(cn1)O3 the ring closure, yield of all isomers ([2]; from CN(C(=O)OC(C)(C)C)c1cc(F)cc2c1[nH]c1nc(Oc3cnc(SCC(=O)O)nc3)nc(NCCCCCCN)c12, then EDC (Et3N), DCM/NMP, 30.0 mM, 3.0 h) was 72%.
CNc1cc(F)cc2c1[nH]c1nc(Sc3nnc(C)s3)nc(N3C[C@H]4C[C@@H]3C[C@H]4N)c12 showed an EC8 MIC (E. coli ATCC 25922) of no more than 0.5 µg/mL, an SA MIC (S. aureus ATCC 13709) of no more than 0.5 µg/mL and an SA+ serum MIC [1] of no more than 0.5 µg/mL.
